Test results published in US7396547B2, “Antiseptic composition” (priority 1999, dated 2008).

Assays:
[1] = system: MRSA 15; assay: Cis PMD MIC/MBC determination, broth dilution and sub-culture; format: cell-based, Staphylococcus aureus; set-up: key: A “+” indicates bacterial growth; a “−” indicates that bacterial growth is prevented; conditions: overnight 37° C.
[2] = system: S. aureus (oxford); assay: as above; format: cell-based; set-up: key: A “+” indicates bacterial growth; a “−” indicates that bacterial growth is prevented; conditions: overnight 37° C.
[3] = system: E. coli; assay: as above; format: cell-based; set-up: key to bacterial growth: A “+” indicates bacterial growth; a “−” indicates that bacterial growth is prevented; conditions: for bacterial growth: overnight 37° C.
Protocol: MIC—minimum inhibitory concentration. This is the concentration of PMD which prevents bacterial growth. […] Thus, for E. Coli below, the minimum inhibitory concentration is 0.25% PMD in 1.25% ethanol.
MBC—minimum bactericidal concentration. This is the concentration of PMD which kills the bacteria. A “ ? ” indicates live bacteria are present.
Cis PMD was dissolved in Absolute Ethanol (0.2 g/ml) to give 20% solution. This was further diluted in water to give 10% in 50% EtOH. 200 μl was added to 0.8 ml Iso-sensitest broth to give a 2% solution in 10% EtOH. Serial 2-fold dilutions in ISB were then carried out and 20 μl E. coli (McFarlane 0.5) were added to each tube and incubated overnight at 37° C. After 18 hours, tubes showing no growth were sub-cultured.

[4] = system: S. pyogenes; assay: as above; format: cell-based; set-up: key: A “+” indicates bacterial growth; a “−” indicates that bacterial growth is prevented; conditions: overnight 37° C.
[5] = system: MRSA 16; assay: as above; format: cell-based, Staphylococcus aureus; set-up: key: A “+” indicates bacterial growth; a “−” indicates that bacterial growth is prevented; conditions: overnight 37° C.
[6] = system: P. aeruginosa; assay: as above; format: cell-based; set-up: key: A “+” indicates bacterial growth; a “−” indicates that bacterial growth is prevented; conditions: overnight 37° C.
[7] = system: certain strains of MRSA; assay: Tests against MRSA; format: cell-based, Staphylococcus aureus
From the text: In a further aspect, therefore, the invention provides the use of PMD against MRSA.

[8] = system: acne; assay: Effect against acne
From the text: The etiology of acne is not completely understood, but, in some instances, it is believed that acne has a bacterial etiology.

[9] = Solubility in water; format: physicochemical
From the text: A composition for use in accordance with the invention can comprise PMD and a carrier.

[10] = Toxicity tests for regulatory authorities
From the text: PMD is the active ingredient in our MOSIGUARD™ insect repellant. We have conducted tests to show regulatory authorities that PMD is not toxic, and we have marketed our insect repellent for several years and there has been no report of any significant toxicity thereof. Potentially, therefore, the medical uses of PMD may be topical or systemic. Systemic administration may be by way of an oral dosage form or by a parenteral route, such as by intra-venous injection.

## CC1CCC(C(C)(C)O)C(O)C1 (stereo not drawn) [Cis PMD]
[1]; 0.06% PMD, 0.3% alcohol
  bacterial growth: +
[1]; 0.125% PMD, 0.6% alcohol
  bacterial growth: +
[1]; 0.25% PMD, 1.25% alcohol
  bacterial growth: +
[1]; 0.5% PMD, 2.5% alcohol
  bacterial growth: −
[1]; 2% PMD, 10% alcohol
  bacterial growth: −
[2]; 0.06% PMD, 0.3% alcohol
  bacterial growth: +
[2]; 0.125% PMD, 0.6% alcohol
  bacterial growth: +
[2]; 0.25% PMD, 1.25% alcohol
  bacterial growth: +
[2]; 0.5% PMD, 2.5% alcohol
  bacterial growth: −
[2]; 1% PMD, 5% alcohol
  bacterial growth: −
[2]; 2% PMD, 10% alcohol
  bacterial growth: −
[3]; 0.06% PMD, 0.3% alcohol
  bacterial growth: +
[3]; 0.125% PMD, 0.6% alcohol
  bacterial growth: +
[3]; 0.25% PMD, 1.25% alcohol
  bacterial growth: −
[3]; 0.5% PMD, 2.5% alcohol
  bacterial growth: −
[3]; 1% PMD, 5% alcohol
  bacterial growth: −
[3]; 2% PMD, 10% alcohol
  bacterial growth: −
[4]; 0.06% PMD, 0.3% alcohol
  bacterial growth: +
[4]; 0.125% PMD, 0.6% alcohol
  bacterial growth: +
[4]; 0.25% PMD, 1.25% alcohol
  bacterial growth: −
[4]; 0.5% PMD, 2.5% alcohol
  bacterial growth: −
[4]; 1% PMD, 5% alcohol
  bacterial growth: −
[4]; 2% PMD, 10% alcohol
  bacterial growth: −
[5]; 0.06% PMD, 0.3% alcohol
  bacterial growth: +
[5]; 0.125% PMD, 0.6% alcohol
  bacterial growth: +
[5]; 0.25% PMD, 1.25% alcohol
  bacterial growth: +
[5]; 0.5% PMD, 2.5% alcohol
  bacterial growth: −
[5]; 1% PMD, 5% alcohol
  bacterial growth: −
[5]; 2% PMD, 10% alcohol
  bacterial growth: −
[6]; 0.06% PMD, 0.3% alcohol
  bacterial growth: +
[6]; 0.125% PMD, 0.6% alcohol
  bacterial growth: +
[6]; 0.25% PMD, 1.25% alcohol
  bacterial growth: +
[6]; 0.5% PMD, 2.5% alcohol
  bacterial growth: −
[6]; 1% PMD, 5% alcohol
  bacterial growth: −
[6]; 2% PMD, 10% alcohol
  bacterial growth: −

## C[C@H]1CC[C@H](C(C)(C)O)[C@H](O)C1 (racemic) [PMD, p-menthane-3,8-diol]
[7]
  effectiveness against MRSA: effective
[8]
  effectiveness against acne: effective
[3]; in 1.25% ethanol
  minimum inhibitory concentration: 0.25%
[3]; in 2.5% ethanol
  minimum bactericidal concentration: 0.5%
[9]
  solubility in water: poorly soluble
[10]
  toxicity: not toxic
